# The supplement of paper PMC10733146
# Columns and labels:
# Test in all cases: viability relative to DMSO control (fraction); higher = less drug effect (more viable cells)
# Details in all cases: 48 h
# [1] = system: primary ALL patient cells (S048)
# Method in brief: (§1)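 Viability is given as CellTiter-Glo luminescence relative to the median of 16 inner DMSO wells. Fresh or cryopreserved primary mononuclear tumour cells from blood, bone marrow (both Ficoll-isolated) or processed lymph node were plated at 4 × 10^4 cells per well in 384-well plates against five pre-plated compound concentrations, one well each. Incubation lasted 48 h at 37 °C and 5% CO2 in RPMI-1640 with penicillin/streptomycin, L-glutamine and human serum.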
# [2] = system: primary AML patient cells (S002)
# Method in brief: as §1
# [3] = system: primary AML patient cells (S012)
# Method in brief: as §1
# [4] = system: primary AML patient cells (S017)
# Method in brief: as §1
# [5] = system: primary AML patient cells (S019)
# Method in brief: as §1
# [6] = system: primary AML patient cells (S037)
# Method in brief: as §1
# [7] = system: primary AML patient cells (S056)
# Method in brief: as §1
# [8] = system: primary AML patient cells (S071)
# Method in brief: as §1
# [9] = system: primary AML patient cells (S072)
# Method in brief: as §1
# [10] = system: primary AML patient cells (S079)
# Method in brief: as §1
# [11] = system: primary AML patient cells (S085)
# Method in brief: as §1
# [12] = system: primary AML patient cells (S089)
# Method in brief: as §1
# [13] = system: primary AML patient cells (S091)
# Method in brief: as §1
# [14] = system: primary BL patient cells (S005)
# Method in brief: as §1
# [15] = system: primary CLL patient cells (S031)
# Method in brief: as §1
# [16] = system: primary CLL patient cells (S043)
# Method in brief: as §1
# [17] = system: primary FL patient cells (S022)
# Method in brief: as §1
# [18] = system: primary MCL patient cells (S053)
# Method in brief: as §1
# [19] = system: primary MCL patient cells (S068)
# Method in brief: as §1
smiles,measurement,setting,value
O=C(Nc1nc2ccccc2n1CCN1CCOCC1)c1cccc([N+](=O)[O-])c1 [IRAK-1/4 INHIBITOR I],viability,[1]; 0.016 µM,0.726
same,viability,[1]; 0.08 µM,0.836
same,viability,[1]; 0.4 µM,0.811
same,viability,[1]; 2 µM,0.834
same,viability,[1]; 10 µM,0.808
same,viability,[2]; 0.016 µM,0.955
same,viability,[2]; 0.08 µM,1.05
same,viability,[2]; 0.4 µM,0.901
same,viability,[2]; 2 µM,0.953
same,viability,[2]; 10 µM,1.03
same,viability,[3]; 0.016 µM,0.922
same,viability,[3]; 0.08 µM,0.993
same,viability,[3]; 0.4 µM,0.908
same,viability,[3]; 2 µM,0.954
same,viability,[3]; 10 µM,0.964
same,viability,[4]; 0.016 µM,0.904
same,viability,[4]; 0.08 µM,0.962
same,viability,[4]; 0.4 µM,0.889
same,viability,[4]; 2 µM,0.932
same,viability,[4]; 10 µM,0.937
same,viability,[5]; 0.016 µM,0.915
same,viability,[5]; 0.08 µM,1.04
same,viability,[5]; 0.4 µM,0.913
same,viability,[5]; 2 µM,0.867
same,viability,[5]; 10 µM,0.909
same,viability,[6]; 0.016 µM,0.878
same,viability,[6]; 0.08 µM,0.933
same,viability,[6]; 0.4 µM,0.895
same,viability,[6]; 2 µM,0.885
same,viability,[6]; 10 µM,1.02
same,viability,[7]; 0.016 µM,0.693
same,viability,[7]; 0.08 µM,1.13
same,viability,[7]; 0.4 µM,0.585
same,viability,[7]; 2 µM,0.817
same,viability,[7]; 10 µM,0.783
same,viability,[8]; 0.016 µM,0.925
same,viability,[8]; 0.08 µM,0.918
same,viability,[8]; 0.4 µM,0.815
same,viability,[8]; 2 µM,0.783
same,viability,[8]; 10 µM,0.636
same,viability,[9]; 0.016 µM,0.921
same,viability,[9]; 0.08 µM,0.985
same,viability,[9]; 0.4 µM,0.909
same,viability,[9]; 2 µM,0.869
same,viability,[9]; 10 µM,0.916
same,viability,[10]; 0.016 µM,0.929
same,viability,[10]; 0.08 µM,0.93
same,viability,[10]; 0.4 µM,0.885
same,viability,[10]; 2 µM,0.906
same,viability,[10]; 10 µM,0.949
same,viability,[11]; 0.016 µM,0.957
same,viability,[11]; 0.08 µM,0.985
same,viability,[11]; 0.4 µM,1.05
same,viability,[11]; 2 µM,1.04
same,viability,[11]; 10 µM,1.02
same,viability,[12]; 0.016 µM,0.772
same,viability,[12]; 0.08 µM,0.973
same,viability,[12]; 0.4 µM,0.849
same,viability,[12]; 2 µM,1
same,viability,[12]; 10 µM,0.872
same,viability,[13]; 0.016 µM,0.911
same,viability,[13]; 0.08 µM,0.936
same,viability,[13]; 0.4 µM,0.951
same,viability,[13]; 2 µM,0.905
same,viability,[13]; 10 µM,0.798
same,viability,[14]; 0.016 µM,1.02
same,viability,[14]; 0.08 µM,1.09
same,viability,[14]; 0.4 µM,1.04
same,viability,[14]; 2 µM,0.984
same,viability,[14]; 10 µM,1.09
same,viability,[15]; 0.016 µM,0.897
same,viability,[15]; 0.08 µM,0.91
same,viability,[15]; 0.4 µM,0.906
same,viability,[15]; 2 µM,0.861
same,viability,[15]; 10 µM,0.877
same,viability,[16]; 0.016 µM,0.825
same,viability,[16]; 0.08 µM,0.885
same,viability,[16]; 0.4 µM,0.838
same,viability,[16]; 2 µM,0.845
same,viability,[16]; 10 µM,0.861
same,viability,[17]; 0.016 µM,0.887
same,viability,[17]; 0.08 µM,0.974
same,viability,[17]; 0.4 µM,0.885
same,viability,[17]; 2 µM,0.915
same,viability,[17]; 10 µM,0.913
same,viability,[18]; 0.016 µM,0.823
same,viability,[18]; 0.08 µM,0.939
same,viability,[18]; 0.4 µM,0.915
same,viability,[18]; 2 µM,0.977
same,viability,[18]; 10 µM,1.09
same,viability,[19]; 0.016 µM,0.977
same,viability,[19]; 0.08 µM,0.997
same,viability,[19]; 0.4 µM,1.13
same,viability,[19]; 2 µM,1.27
same,viability,[19]; 10 µM,1.41
